In PubChem BioAssay AID248 (DTP/NCI, 2004):
Where “and” joins values, the source holds several entries; their conditions need not be identical. Equal values may be shown once. Inconclusive results and toxic doses are left out. Rule as the data show it: active = T/C of 150% or more; inactive = T/C below 125%.

Test system: L1210 leukemia ip in BDF1 mice, survival T/C
Experiment: NCI In Vivo Anticancer Drug Screen. Data for tumor model L1210 Leukemia (intraperitoneal) in B6D2F1 (BDF1) mice
Conditions: endpoint: mean survival time, higher = longer survival
Outline: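 Ratio derived from survival: compound-dosed mice over vehicle-dosed mice, all bearing a transplantable tumor.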

[1] = dose: 100.0 mg/kg/injection, schedule: Q04DX003 (ip), vehicle: Klucel (hydroxypropylcellulose) (HPC)
[2] = dose: 200.0 mg/kg/injection, schedule: Q04DX003 (ip), vehicle: Klucel (hydroxypropylcellulose) (HPC)
[3] = dose: 400.0 mg/kg/injection, schedule: Q04DX003 (ip), vehicle: Klucel (hydroxypropylcellulose) (HPC)
[4] = dose: 100.0 mg/kg/injection, schedule: Q01DX009 (ip), vehicle: Klucel (hydroxypropylcellulose) (HPC)
[5] = dose: 200.0 mg/kg/injection, schedule: Q01DX009 (ip), vehicle: Klucel (hydroxypropylcellulose) (HPC)
[6] = dose: 400.0 mg/kg/injection, schedule: Q01DX009 (ip), vehicle: Klucel (hydroxypropylcellulose) (HPC)
[7] = dose: 100.0 mg/kg/injection, schedule: Q04DX002 (ip), vehicle: Klucel (hydroxypropylcellulose) (HPC)
[8] = dose: 200.0 mg/kg/injection, schedule: Q04DX002 (ip), vehicle: Klucel (hydroxypropylcellulose) (HPC)
[9] = dose: 75.0 mg/kg/injection, schedule: Q01DX001 (ip), vehicle: saline
[10] = dose: 12.5 mg/kg/injection, schedule: Q04DX003 (ip), vehicle: Klucel (hydroxypropylcellulose) (HPC)
[11] = dose: 25.0 mg/kg/injection, schedule: Q04DX003 (ip), vehicle: Klucel (hydroxypropylcellulose) (HPC)
[12] = dose: 50.0 mg/kg/injection, schedule: Q04DX003 (ip), vehicle: Klucel (hydroxypropylcellulose) (HPC)
[13] = dose: 100.0 mg/kg/injection, schedule: Q01DX001 (ip), vehicle: saline
[14] = dose: 200.0 mg/kg/injection, schedule: Q01DX001 (ip), vehicle: saline
[15] = dose: 400.0 mg/kg/injection, schedule: Q01DX001 (ip), vehicle: saline
[16] = dose: 100.0 mg/kg/injection, schedule: Q01DX009 (ip), vehicle: saline with Tween-80
[17] = dose: 200.0 mg/kg/injection, schedule: Q01DX009 (ip), vehicle: saline with Tween-80
[18] = dose: 400.0 mg/kg/injection, schedule: Q01DX009 (ip), vehicle: saline with Tween-80
[19] = dose: 400.0 mg/kg/injection, schedule: Q04DX002 (ip), vehicle: Klucel (hydroxypropylcellulose) (HPC)
[20] = dose: 100.0 mg/kg/injection, schedule: Q04DX003 (ip), vehicle: saline
[21] = dose: 200.0 mg/kg/injection, schedule: Q04DX003 (ip), vehicle: saline
[22] = dose: 400.0 mg/kg/injection, schedule: Q04DX003 (ip), vehicle: saline

Measured: T/C

Fc1ccc2[nH]c3c(c2c1)CP(c1ccccc1)CC3 (stereo not given)
inactive: [1] 100 % of control | [2] 96 % of control | [3] 105 % of control

O=c1oc2cccc(O)c2c2c1CCCC2
inactive: [4] 95 % of control | [1] 97 % of control | [5] 90 % of control | [2] 95 % of control | [6] 90 % of control | [3] 93 % of control

Cc1ccc2c(c1)C(=O)CCS2
inactive: [4] 107 % of control | [5] 100 % of control | [6] 102 % of control

O=C(O)COc1ccc(C2(c3ccc(OCC(=O)O)cc3)CC3CC2C2CCCC32)cc1 (stereo not given) (tested in a mixture with another compound)
inactive: dose: 100.0 mg/kg/injection, schedule: Q04DX002 (ip), vehicle: saline with Tween-80 93 % of control | dose: 200.0 mg/kg/injection, schedule: Q04DX002 (ip), vehicle: saline with Tween-80 93 % of control | dose: 400.0 mg/kg/injection, schedule: Q04DX002 (ip), vehicle: saline with Tween-80 106 % of control

O=C(O)c1cccc2c1C(=O)c1c(O)cccc1C2=O
inactive: dose: 50.0 mg/kg/injection, schedule: Q04DX002 (ip), vehicle: Klucel (hydroxypropylcellulose) (HPC) 105 % of control | [7] 96 % of control | [8] 92 % of control

COc1cc2c(cc1OC)C1(CCCl)C3CC4C(=CCOC5CC(=O)N2C1C54)CN3C(=O)Cc1ccccc1 (stereo not given)
inactive: [9] 100 % of control

CC(C)(SCCc1ccc([N+](=O)[O-])cc1)C(N)C(=O)O (stereo not given)
inactive: dose: 12.0 mg/kg/injection, schedule: Q01DX009 (ip), vehicle: Klucel (hydroxypropylcellulose) (HPC) 93 % of control | [10] 91 % of control | dose: 25.0 mg/kg/injection, schedule: Q01DX009 (ip), vehicle: Klucel (hydroxypropylcellulose) (HPC) 104 % of control | [11] 91 % of control | dose: 50.0 mg/kg/injection, schedule: Q01DX009 (ip), vehicle: Klucel (hydroxypropylcellulose) (HPC) 103 % of control | [12] 93 % of control

Cc1ccc(NC(=O)c2ccc(C)c([N+](=O)[O-])c2)c(C)c1
inactive: dose: 100.0 mg/kg/injection, schedule: Q01DX009 (sc), vehicle: olive oil, sesame oil, peanut oil 86 % of control | dose: 100.0 mg/kg/injection, schedule: Q04DX003 (sc), vehicle: olive oil, sesame oil, peanut oil 100 % of control | dose: 200.0 mg/kg/injection, schedule: Q01DX009 (sc), vehicle: olive oil, sesame oil, peanut oil 94 % of control | dose: 200.0 mg/kg/injection, schedule: Q04DX003 (sc), vehicle: olive oil, sesame oil, peanut oil 105 % of control | dose: 400.0 mg/kg/injection, schedule: Q01DX009 (sc), vehicle: olive oil, sesame oil, peanut oil 89 % of control | dose: 400.0 mg/kg/injection, schedule: Q04DX003 (sc), vehicle: olive oil, sesame oil, peanut oil 97 % of control

COC1OCC(OC(C)=O)C(NC(C)=O)C1OC(C)=O (stereo not given)
inactive: [13] 100 % of control | [14] 101 % of control | [15] 111 % of control

C(=N\N=C\c1ccccc1)/c1ccccc1
inactive: [16] 97 % of control | [7] 98 % of control | [17] 100 % of control | [8] 91 % of control | [18] 100 % of control | [19] 102 % of control

c1ccc(SCN(CSc2ccccc2)c2ccccc2)cc1
inactive: [4] 106 % of control | [5] 101 % of control

Cc1cccc(CO)n1
inactive: dose: 100.0 mg/kg/injection, schedule: Q01DX009 (ip), vehicle: saline 106 % of control | [20] 110 % of control | dose: 200.0 mg/kg/injection, schedule: Q01DX009 (ip), vehicle: saline 108 % of control | [21] 110 % of control | dose: 400.0 mg/kg/injection, schedule: Q01DX009 (ip), vehicle: saline 103 % of control | [22] 103 % of control

CC(C)(N)CN
inactive: [13] 96 % of control | [14] 96 % of control | [15] 94 % of control

Cc1cccc(NNC(=S)Nc2ccccc2)c1
inactive: [16] 97 % of control | [17] 97 % of control | [18] 94 % of control

CCOC(=O)NCC(C)(CCN1CCCC1)c1cccc2ccccc12 (stereo not given)
inactive: dose: 12.5 mg/kg/injection, schedule: Q01DX009 (ip), vehicle: saline with Tween-80 93 % of control | [10] 100 % of control | dose: 25.0 mg/kg/injection, schedule: Q01DX009 (ip), vehicle: saline with Tween-80 88 % of control | [11] 100 % of control | [12] 100 % of control

CCOP(=O)(OCC)Oc1cc(C)c(SC)c(C)c1
inactive: [9] 89 % of control | dose: 150.0 mg/kg/injection, schedule: Q01DX001 (ip), vehicle: saline 101 % of control

CC(=O)Oc1cc2c(cc1OC(C)=O)C(Br)CCCC2=O (stereo not given)
inactive: dose: 100.0 mg/kg/injection, schedule: Q01DX009 (ip), vehicle: other 96 % of control | dose: 100.0 mg/kg/injection, schedule: Q04DX003 (ip), vehicle: other 94 % of control | dose: 200.0 mg/kg/injection, schedule: Q01DX009 (ip), vehicle: other 93 % of control | dose: 200.0 mg/kg/injection, schedule: Q04DX003 (ip), vehicle: other 102 % of control | dose: 400.0 mg/kg/injection, schedule: Q01DX009 (ip), vehicle: other 104 % of control | dose: 400.0 mg/kg/injection, schedule: Q04DX003 (ip), vehicle: other 104 % of control

O=C(CS)NNC(=O)CS
inactive: [7] 93 % of control | [20] 104 % of control | [8] 96 % of control | [21] 110 % of control | [19] 104 % of control | [22] 86 % of control

Cc1cc(C)c(OC2=C(c3c(C)cc(C)cc3C)C(=O)c3ccccc32)c(C)c1
inactive: dose: 100.0 mg/kg/injection, schedule: Q01DX001 (ip), vehicle: carboxymethylcellulose (CMC) 91 % of control | dose: 200.0 mg/kg/injection, schedule: Q01DX001 (ip), vehicle: carboxymethylcellulose (CMC) 89 % of control | dose: 400.0 mg/kg/injection, schedule: Q01DX001 (ip), vehicle: carboxymethylcellulose (CMC) 96 % of control

[CH3][Sn]([CH3])([Cl])[CH2]Cl
inactive: dose: 0.39 mg/kg/injection, schedule: Q01DX009 (ip), vehicle: saline 112 % of control | dose: 0.78 mg/kg/injection, schedule: Q01DX009 (ip), vehicle: saline 119 % of control | dose: 1.56 mg/kg/injection, schedule: Q01DX009 (ip), vehicle: saline 97 % of control and 91 % of control | dose: 3.12 mg/kg/injection, schedule: Q01DX009 (ip), vehicle: saline 87 % of control
